Laboratory results from patent US11040108B2, “Amino acid- and peptide-steroid conjugates and use thereof” (BRANDEIS UNIVERSITY, priority 2016, dated 2021).
Like-named read-outs stand apart in the source and are kept apart here.

Experiments:
[1] = system: Saos-2 osteosarcoma cells; test: MTT assay, cell viability of Saos-2; format: cell-based; settings: Homo sapiens, read-out: IC50 against Saos-2
Procedure: (§1) HeLa, Saos-2, HS-5, HepG2, T98G, and A2780 cells were purchased from American-type Culture Collection (ATCC, USA). A2780cis cell was purchased from Sigma. HeLa cells, HepG-2 cells, and T98G cells were cultured in MEM Medium supplemented with 10% v/v fetal bovine serum, 100 U/mL penicillin, and 100 μg/mL streptomycin. Saos-2 cells were cultured in McCoy's 5a Medium (for Saos-2) supplemented with 15% v/v fetal bovine serum, 100 U/mL penicillin, and 100 μg/mL streptomycin. HS-5 cells were cultured in Dulbecco's Modified Eagle's medium (DMEM) supplemented with 10% v fetal bovine serum (FBS), 100 U/mL penicillin, and 100 μg/mL streptomycin. A2780cis cells were cultured in RPMI 1640 Medium supplemented with 10% v/v fetal bovine serum, 100 U/mL penicillin, and 100 μg/mL streptomycin (cisplatin only necessary every 2-3 passages). All cells were maintained at 37° C. in a humidified atmosphere of 5% CO2.
(§2) An MTT assay was used to test the cytotoxicity. All different cell lines were seeded in 96-well plates at 1×10^5 cells/well for 24 hours followed by removal of the culture medium and subsequent addition of culture medium containing different concentrations of the precursors. […] The absorbance of each well at 595 nm was measured by a multimode microplate reader. […]

[2] = system: HepG2 human liver carcinoma cells; test: MTT assay, cell viability of HepG2; format: cell-based; settings: read-out: IC50 against HepG-2
Procedure: as §1, §2

[3] = system: HeLa cells; test: MTT assay, cytotoxicity against HeLa; format: cell-based, human
Procedure: as §1
An MTT assay was used to test the cytotoxicity. All different cell lines were seeded in 96-well plates at 1×10^5 cells/well for 24 hours followed by removal of the culture medium and subsequent addition of culture medium containing different concentrations of the precursors. At designated time (24/48/72 hours), 10 μL MTT solution (5 mg/mL) was added to each well and incubated at 37° C. for another 4 hours, and then 100 μL of SDS-HCl solution was added to stop the reduction reaction and dissolve the purple formazan. The absorbance of each well at 595 nm was measured by a multimode microplate reader. The cytotoxicity assay was performed three times and the average value of the three measurements was taken.
To confirm that assemblies of the cholesterol conjugate are able to inhibit other cancer cell lines, 1a was incubated with HeLa cells, a widely studied malignant cervical cancer cell line.

[4] = TEM of assemblies in aqueous solution; format: physicochemical; settings: 1.0 wt %
Procedure: Sample solution (5 sufficient to cover the grid surface) was placed on the grid. Approximately 10 sec later, sample was rinsed by placing a large drop of the ddH2O on parafilm and allowing the grid to touch the water drop, with the sample-loaded surface facing the parafilm. The grid was tilted and water was gently absorbed from the edge of the grid using a filter paper sliver. This procedure was repeated 3 times. Immediately after rinsing, the staining was conducted by placing a large drop of the uranyl acetate (UA) stain solution on parafilm and allowing the grid to touch the stain solution drop, with the sample-loaded surface facing the parafilm. The grid was tilted and the stain solution was gently absorbed from the edge of the grid using a filter paper sliver. Next, the grid was allowed to dry in air and the grid was examined as soon as possible.
To further understand the inhibitory activity of 1a, transmission electron microscopy (TEM) was used to confirm the EISA of 1b. […] In contrast, uniform nanofibers (diameter of 10±2 nm) formed after the addition of ALP (1 U/mL) into the solution of 1a (FIG. 3B). The resulted nanofibers entangled with each other to result in a viscous solution. […] But the direct dissolution of 2b (1.0 wt %) provided an aqueous solution containing nanoribbon with the diameter of 17±2 nm and in several hundred nanometer length (FIG. 4B). These observations, collectively, confirmed that enzymatic reaction modulated the morphology of the assemblies of the cholesterol conjugates, which partially contributed to the different inhibitory activities of 1a, 1b, 2a, and 2b. That is, being exposed to the cancer cell, 1a (or 2a) turns into 1b (or 2b), a process catalyzed by the extra- or intracellular enzymes of the cancer cells; the resulting 1b (or 2b) self-assembled to form nanoscale assemblies that result in death of the cancer cell.

[5] = system: F-actin in A2780cis cells; test: Actin staining (CLSM), A2780cis; format: cell-based, human; settings: 1a 12.5 μM, 12 hours
Procedure: Cells in exponential growth phase were seeded in confocal dish (3.5 cm) at 1×10^5 to 2×10^5 cells per dish. After putting the dish in incubator for 24 hours, culture medium was removed, and fresh medium containing precursor (12.5 μM 1a for A2780cis, 25 μM 1a for HeLa) was added. After 12 hours, the medium was removed and PBS was used to wash the cells for three times. After fixing by 4% paraformaldehyde for 15 minutes, 1 mL of 0.1% Triton X-100 in PBS buffer was added for 30 minutes. After washing the cells three times by PBS, 1 mL of 0.1% BSA in PBS was added for 30 minutes, and then the cells were washed by PBS for three times. 1 mL of PBS containing 5 unit of Alexa 633 was added to the cells for 1 hour. After removing the buffer and washing the cells three times by PBS, 1 mL of Hoechst (1 μg/mL) was added for 10 minutes. Then, the cells were washed three times with PBS buffer before imaging. […]

CC(C)CCC[C@@H](C)C1CC[C@H]2[C@@H]3CC=C4CC(OC(=O)NC(Cc5ccc(OP(=O)(O)O)cc5)C(=O)O)CC[C@]4(C)[C@H]3CC[C@]12C (stereo partly drawn) [1a, Cholesterol-(phospho)D-Tyr]
IC50 ([1]; 48 hours): 41 µM
IC50 ([1]; 72 hours): 26 µM
IC50 ([2]; 48 hours): 45 µM
IC50 ([2]; 72 hours): 35 µM
viability of HeLa cell treated by 1a with phosphatase or cell death signaling inhibitors ([3]; 1a 12.5 μM + ALP, L-Phe, levamisole, zVAD-fmk, PJ34 or Nec-1, 48 hours): significantly increased the viability
IC50 ([3]; 48 hours, read-out: IC50 against HeLa cell): 19 µM
IC50 ([3]; Homo sapiens, HeLa, 48 h, read-out: IC50 against HeLa cell): 18.6 µM
IC50 ([3]; Homo sapiens, HeLa, 72 h, read-out: IC50 against HeLa): 16 µM
viability of HeLa cells ([3]; treated by 1a, 24 hours): most HeLa cells were viable
morphology in aqueous solution without ALP ([4]; pH 7.4): disorder aggregates
diameter of nanofibers formed after addition of ALP ([4]; pH 7.4, ALP 1 U/mL, 24 hours): 10±2 nm
F-actin filaments [5]: short, ill-defined actin filament
